Measurements from a melting point compilation (Tetko et al.; mined from patent text by program, amines drawn as free bases though some values may be those of a salt).

| Compound | melting point [°C] |
| --- | --- |
| COc1cc(-c2cnc3[nH]cc(C(=O)C4(C)CCC(O)CC4)c3n2)cc(OC)c1OC (stereo unspecified) | 242 to 244 |
| COC(=O)CC1=C(C)Cc2cc(F)c(OC)cc21 | 61 to 62 |
| CCOC(=O)Cc1ccc(-c2nc(CCl)c(C)o2)cc1 | 87 to 88 |
| CN(c1ccc(Cl)cc1)C1CCN(c2ccc(OC[C@@]3(C)Cn4cc([N+](=O)[O-])nc4O3)cc2)CC1 | 174 to 175 |
| CC(C)(CCCC(=O)O)c1ccc2c(c1)C(=O)c1ccc(C(C)(C)CCCC(=O)O)cc1C2=O | 222 to 224 |
| Cc1nccn1S(=O)(=O)c1c[nH]cn1 | 158 to 159 |
| CCCCn1c(=O)c2c(ncn2S(=O)(=O)Cc2ccccc2)n(CCCC)c1=O | 117 to 118 |
| c1ccc(Cn2c3ccccc3c3cc(-c4nc(C5CC5)no4)sc32)cc1 | 140 to 141 |
| COc1cc(Nc2nccc(-c3cncs3)n2)cc(OC)c1OC | 171 |
| Cn1cc(C2CCC3(CC2)OCCO3)c2cc(C#N)ccc21 | 170 to 172 |
| CCCCc1nc(C2CCCCC2)n(Cc2ccc(-c3ccccc3-c3ncn[nH]3)cc2)n1 | 158 to 160 |
| COc1cc(C(C)=O)ccc1OCCN1CCN(c2nsc3ccccc23)CC1 | 98 to 100 |
| Nc1nc2c(s1)CCN(CC=Cc1cccc3ccccc13)CC2 | 178 to 180 |
| NC(=O)C1CCC(=O)N1CC#CCN1CCCC1 (stereo unspecified) | 146 to 148 |
| CS(=O)(=O)Nc1ccc(OC2SCC(O)C(O)C2O)cn1 (stereo unspecified) | 201 to 204 |
| CC(C)(O)Cn1c(CO)nc2c(N)nc3cc(OCc4ccccc4)ccc3c21 | 284 to 286 |
| O=C1CCC(=O)c2ccccc2N1 | 168 to 170 |
| COc1cc2c(cc1O)C1Cc3c(Cl)cc(OC)c(O)c3CN1CC2 (stereo unspecified) | 136 to 138 |
| COC(=O)c1c(C2=NC(C)(C(C)C)C(=O)N2)cccc1[N+](=O)[O-] (stereo unspecified) | 159 to 162 |
| CCC1(CC)NC(C)(C)CN(c2ccccc2)C1=O | 54 to 56 |
| COCn1c(C)nc2c(O)cc(C(=O)N(C)C)cc21 | 173 to 183 |
| CC(C)(C)OC(=O)CCc1ccc(Cc2nnn(C(C)(C)C)n2)cc1 | 54 to 55 |
| COc1cc(OCc2ccccn2)ccc1/C=C/c1cc(/C=C/c2c[nH]c3ncccc23)n[nH]1 | 219 to 223 |
| C=CCOP1(=S)OCc2cc(C)cnc2O1 (stereo unspecified) | 79 to 80 |
| c1ccc(N=C2SCS2)nc1 | 98.7 to 99.7 |
| COc1c(N2CCC(n3cc(C)nn3)C2)c(F)c(N)c2c(=O)c(C(=O)O)cn(C3CC3)c12 (stereo unspecified) | 256 |
| CC(C)(S)CN1CCN(c2ccccn2)CC1 | 108 to 110 |

| Compound | melting point [°C] |
| --- | --- |
| CCCCc1nc2cccnc2n1-c1ccc(OCc2ccc(OC)c(OC3CC4CCC3C4)c2)cc1 (stereo unspecified) | 130 to 132 |
| CSc1nnc(C(F)F)s1 | 23 |
| CC1(C)Oc2ccc(Br)cc2C(Oc2ccc(O)nn2)C1(C)O (stereo unspecified) | 242 |
| Cc1cnc2c(c1)COP(=S)(OC(C)C)O2 (stereo unspecified) | 96 to 98 |
| CC(=O)OC(C)c1cc2c(s1)C(=O)c1ccsc1C2=O (stereo unspecified) | 174 to 176 |
| N#Cc1cc([N+](=O)[O-])ccc1N1CCC(O)CC1 | 114 to 115 |
| Cc1ccc(C)c2c1CN(NC(=O)OC(C)(C)C)C2 | 148 to 151 |
| Cn1nnnc1-c1ccc(CCl)cc1 | 90 to 92 |
| CC(C)(C)OCCOCCn1cc(C(=O)NCc2ccc(Cl)cc2)c(=O)c2cc(CN3CCOCC3)ccc21 | 130 to 132 |
| O=C1CCC(c2ccccc2)(c2ccccc2)C2CN(C(Cc3ccccc3)=NCc3cccc4ccccc34)CC12 (stereo unspecified) | 192 |
| COc1ccc(S(=O)(=O)C(C/C=C(\C)CCC=C(C)C)(Cc2ccc(OCCN3CCOCC3)cc2)C(=O)NO)cc1 (stereo unspecified) | 61 |
| CCOC(=O)c1cn2c3c(cc(CN4CCOCC4)cc3c1=O)OC(c1ccccc1)C2 (stereo unspecified) | 213 to 215 |
| CS(=O)(=O)c1ccc(-c2nn3ccoc3c2-c2ccc(F)cc2)cc1 | 67 to 70 |
| CCc1cccc2c(/C(C)=C/C(=O)O)cc(OC)c(OCOC)c12 | 114 to 115 |
| CC1COC2(c3ccccc3)c3cc(Cl)ccc3NC(=O)CN12 (stereo unspecified) | 84 to 98 |
| CCCCCC(O)CCCN(CCCCCCC(=O)O)C(N)=O (stereo unspecified) | 75 to 76 |
| CCc1ccc2cc(C3(Cn4ccnc4)OCCO3)ccc2c1 | 251 |
| CS(=O)(=O)c1ccc(-c2nc3cc(OC(=O)N4CCCCC4)ccc3s2)c(F)c1 | 173 to 178 |
| CC(C)(NCc1ccc(Oc2ccc3c(c2)OCO3)cc1)C(N)=O | 123 to 124 |
| CN(C)C(=Nc1ccccc1)N(C)N1C(=O)c2ccccc2C1=O | 146 to 148 |
| CS(=O)(=O)c1ccc(C2=C(c3ccccc3)C(=O)c3ccccc32)cc1 | 167 to 168 |
| CC(C)(C)c1cc(Sc2n[nH]c(=S)o2)cc(C(C)(C)C)c1O | 129 to 131 |
| O=C1NC(c2cccs2)=C2C(=O)NC(c3cccs3)=C12 | > 400 |
| CCOC(=O)c1cc2cc(Cl)c(F)cc2[nH]1 | 160 to 164 |
| CC(O)(c1ccc(Cl)cc1)C1CCNCC1 (stereo unspecified) | 178 to 180 |
| COc1ccc(CC(C)=O)cc1S(=O)(=O)Cl | 80 to 81 |
| CCCN=C(Cc1ccccc1)N1CC2C(=O)CCC(c3ccccc3)(c3ccccc3)C2C1 (stereo unspecified) | 86 |

Further lines, results first:

| melting point [°C] | Compound |
| --- | --- |
| 175 to 177 | NNc1nc(C(F)(F)F)nc(-c2ccc(F)cc2)c1-c1ccccc1 |
| 52 to 56 | O=C1C(c2cccc(Br)c2)n2cncc2CN1Cc1ccccn1 (stereo unspecified) |
| 132 to 135 | Clc1ccc2c(c1)CNc1ccccc1C2 |
| 227 to 228 | CC(C)c1ccnc(C(=O)c2[nH]c3ccc(Cl)cc3c2CC(=O)O)c1 |
| 35 to 37 | FC(F)(F)c1ccc(-c2cc(C(F)(F)F)cc(Br)n2)cc1 |
| 217 to 219 | O=Cc1ccc(-c2ccc(-c3ccc(C=O)o3)nc2)cc1 |
| 162 to 165 | C[C@H](C(=O)O)n1ncn(-c2ccc(OCC(F)(F)C(F)F)cc2)c1=O |
| 74 to 75 | COC(=O)C(NC(=O)OCc1ccccc1)OC (stereo unspecified) |
| 64 to 66 | CC(C)C(NC(=O)OC(C)(C)C)N1CC(NC(=O)Cc2ccccc2)C1=O (stereo unspecified) |
| 110 to 111 | O=C(c1ccccc1)c1nsc(N2CCN(c3ccccn3)CC2)n1 |
| 276 | O=C(Nc1nnn[nH]1)c1cccc([N+](=O)[O-])c1 |
| 158 to 160 | CCCNc1ccc2oc([N+](=O)[O-])c(-c3ccccc3)c2c1 |
| 116 to 118 | CC(C)=CCNc1cccc(-c2ccnc3c(C(=O)c4cccs4)cnn23)c1 |
| 224 to 226 | Cc1cc(C)n(-c2nc(Nc3ccc(Cl)c(Cl)c3)c3ccccc3n2)n1 |
| 183 to 188 | CC(=O)Nc1cccc(-c2cnc(N(C)C)nc2)c1 |
| 103 | CCN(CC)C(=O)CCc1nc(-c2ccccc2)nc2ccccc12 |
| 100 to 102 | CCOC(=O)c1cc(C)n(-c2cccc(C(C)=O)c2)c1-c1ccccc1 |
| 80 to 100 | NC(=O)CCN1CCN(C(=O)c2cc(C(F)(F)F)cc(C(F)(F)F)c2)[C@H](Cc2c[nH]c3ccccc23)C1 |
| 165 to 167 | COC(=O)c1ccc(-c2nc3c(OC)cccc3s2)cc1 |
| 198 | CCCC1=C(C(=O)OCC)C(c2ccnc3ccccc23)c2c[nH]nc2N1 (stereo unspecified) |
| 149 to 150 | CC(=O)c1ccccc1-c1ccc(C(=O)N2Cc3ccc(C(=O)NCc4cccnc4)n3Cc3ccccc32)cc1 |
| 154 to 155 | CC[C@@H]1C[C@H](NC(=O)OCc2ccccc2)c2cc(C(F)(F)F)ccc2N1 |
| 207 | COC(=O)c1ccc(C(=O)NNC(=O)C=Cc2ccccc2)cc1 |
| 170 to 171 | CC(NC(=O)OCc1ccccc1)C(=O)N1CC(=O)NC1(C)C (stereo unspecified) |

| melting point [°C] | Compound |
| --- | --- |
| 138 to 140 | Cn1c(-c2ccccc2)c(CCC(=O)O)c2ccccc2c1=O |
| 162 to 163 | COC(=O)N1CCC(=NO)c2cc(Cl)ccc21 |
| 164 to 167 | CCOC(=O)Cn1cc2c(n1)-c1ccccc1N(C(=O)c1ccc(NC(=O)c3ccc(Cl)cc3Cl)cc1)CC2 |
| 151 | OC1(c2ccncc2)CCc2ccccc21 (stereo unspecified) |
| 146 to 150 | CC12CCC3c4ccc(C(=O)O)cc4CCC3C1CCC2C(=O)Cc1ccccc1 (stereo unspecified) |
| 80 to 82 | CS(=O)(=O)Nc1cccc(S(F)(F)(F)(F)F)c1 |
| 95 to 98 | O=C(COc1cc(F)ccc1C(=O)NCc1cccc([N+](=O)[O-])c1)OCc1ccccc1 |
| 218 | Cc1nc(-c2cccc(C(=O)N[C@H]3CC[C@H](CCN4CCN(c5nccc6c5CCO6)CC4)CC3)c2)no1 |
| 268 | CCOc1cc(-c2cc(C(F)(F)F)n3ncc(C(=O)Nc4cccc(S(=O)(=O)NC(C)(C)CO)c4)c3n2)ccc1C(F)(F)F |
| 95 to 96 | CC(=O)NCCn1ccc2c1-c1ccccc1CC2 |
| 183 to 185 | N#CN=C(Nc1cccnc1)NC(NC(=O)c1cccc(Cl)c1)C(F)(F)C(F)(F)F (stereo unspecified) |
| 189 to 190 | Nc1ccc(F)c(-c2ccncc2)n1 |
| 185 to 187 | COc1cc(OC)c(-c2cc3ccccc3[nH]2)cc1C=CC(=O)c1ccc(S(N)(=O)=O)cc1 |
| 245 to 247 | Cn1cc(C2=C(c3cn(CCCC#N)c4ccccc34)C(=O)NC2=O)c2ccccc21 |
| 83 to 85 | CC(Oc1ccc(Oc2ccc(C(F)(F)F)cn2)cc1)C(=O)N1CCCO1 (stereo unspecified) |
| 119 to 121 | COC(=O)c1ccccc1-c1cc(-c2ccc(OC)cc2)n(C(C)=O)n1 |
| 177 to 179 | Cc1ccc(S(=O)(=O)NCCNC2(c3ccc(Cl)cc3)OC(=O)c3ccccc32)cc1 (stereo unspecified) |
| 168 to 170 | O=C(c1ccccc1)c1cc(-c2ccncc2)sc1-c1ccncc1 |
| 166 to 168 | COc1ccc(Cn2nnnc2C(=O)Nc2cccc(N3CCCCC3)c2C#N)cc1 |
| 228 | Cc1[nH]c(=S)n(Nc2ccc(F)cc2)c1-c1ccccc1 |
| 280 to 290 | Cc1[nH]c(=O)c(C#N)cc1-c1ccccc1 |
| 163 to 166 | CS(=O)(=O)c1ccc(-c2sc(-c3ccccc3Cl)nc2-c2ccccc2F)cc1 |
| 119 to 120 | COC(=O)c1c(-c2ccccc2)n[nH]c1C |
